Results on one molecule are retold here after patent US7208502B2, “Methods of treating conditions associated with an Edg-3 receptor” (Maniv Energy Capital, priority 2002, dated 2007).

In one assay the test system is Adrenergic β. Description: Radioligand binding assay, 3H Dihydroaplenolol. More on the design: species or system Wistar rat. The conditions noted are these: 10 μM; significance criteria ≧50% of max stimulation or inhibition. On the procedure: (§1) In order to test the selectivity of compounds, various enzyme assays as well as radioligand binding assays were performed using numerous non-Edg receptor targets as listed below.
(§2) A radioligand binding assay was performed using adrenergic α1 according to the method of Greengrass and Bremner 1979, Eur. J. Pharmacol. 55:323–326. A radioligand binding assay was performed using adrenergic α2 according to the method of Boyajian and Leslie, 1987, J. Pharmacol. Exp. Ther. 241:1092–1098. A radioligand binding assay was performed using adrenergic β according to the method of Feve et al., 1994, Proc. Natl. Acad. Sci. USA 91:5677–5681. A radioligand binding assay was performed using angiotensin AT2 according to the method of Whitebread et al., 1991, Biochem. Biophys. Res. Comm. 181:1365–1371. A radioligand binding assay was performed using calcium channel Type L, dihydropyridine according to the method of Ehlert et al., 1982, Life Sci. 30:2191–2202. A radioligand binding assay was performed using dopamine D2L according to the method of Bunzo et al., 1988, Nature 336:783–787. A radioligand binding assay was performed using endothelin ETA according to the method of Mihara et al., 1994, J. Phrmacol. Exp Ther. 268:1122–1127. A radioligand binding assay was performed using histamine H1 Central according to the method of Hill et al., 1978, J. Neurochem. 31:997–1004. […]
(§3) Quantitation Method: Radioligand Binding […]

The target in another assay is T1, Edg-7 (Homo sapiens, UniProt Q9UBY5).
T1 construct: expressed in transfected cells; host or cells: HTC rat hepatoma cells
T1 sequence (Q9UBY5 1-353): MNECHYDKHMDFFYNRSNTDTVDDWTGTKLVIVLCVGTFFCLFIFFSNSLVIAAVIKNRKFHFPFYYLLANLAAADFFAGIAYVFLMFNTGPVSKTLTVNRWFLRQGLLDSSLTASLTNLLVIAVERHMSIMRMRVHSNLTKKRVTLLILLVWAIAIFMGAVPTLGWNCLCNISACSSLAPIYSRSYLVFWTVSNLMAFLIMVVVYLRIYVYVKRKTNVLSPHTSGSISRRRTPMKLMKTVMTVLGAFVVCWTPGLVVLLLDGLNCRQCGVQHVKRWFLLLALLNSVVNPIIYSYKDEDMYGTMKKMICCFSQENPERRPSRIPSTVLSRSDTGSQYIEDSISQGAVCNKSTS
Nature of the assay: Intracellular calcium assay, LPA-stimulated, HTC cells expressing Edg-7. Type of assay: cell-based. The settings on record: concentrations as high as 20 µM. (In general: A change in cytosolic calcium serves as a functional read-out for many receptors and channels.)

For another assay, the target named is T2, Edg-1 (Homo sapiens, UniProt P21453).
T2 construct: expressed in transfected cells; host or cells: HTC rat hepatoma cells
T2 sequence (P21453 whole entry): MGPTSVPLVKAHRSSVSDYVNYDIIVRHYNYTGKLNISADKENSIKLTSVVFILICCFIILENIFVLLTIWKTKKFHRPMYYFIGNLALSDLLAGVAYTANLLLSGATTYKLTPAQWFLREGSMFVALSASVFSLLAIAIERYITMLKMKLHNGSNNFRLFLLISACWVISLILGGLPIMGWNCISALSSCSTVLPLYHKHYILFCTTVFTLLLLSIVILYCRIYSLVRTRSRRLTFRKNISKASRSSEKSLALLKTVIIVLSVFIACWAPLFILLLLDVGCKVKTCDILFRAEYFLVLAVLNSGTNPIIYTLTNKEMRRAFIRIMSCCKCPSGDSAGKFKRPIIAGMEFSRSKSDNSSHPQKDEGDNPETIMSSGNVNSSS
Nature of the assay: Intracellular calcium assay, S1P-stimulated, HTC cells expressing Edg-1. Type of assay: cell-based. The conditions noted are these: concentrations as high as 20 µM.

A further assay concerns the target T3, Edg-4 (Homo sapiens, UniProt Q9HBW0).
T3 construct: expressed in transfected cells; host or cells: HTC rat hepatoma cells
Description: Intracellular calcium assay, LPA-stimulated, HTC cells expressing Edg-4. Format: cell-based. The conditions noted are these: concentrations as high as 20 µM.

A further assay concerns the target T4, Histamine H1, Central (Cavia porcellus, UniProt P31389).
T4 construct: from tissue; host or cells: guinea pig cerebellum
Description: Radioligand binding assay, 3H Pyrilamine. More on the design: species or system Guinea pig. The conditions noted are these: 10 μM; significance criteria ≧50% of max stimulation or inhibition. How it is done: as §1, §2, §3

A further assay has as its target T5, Edg-5 (Homo sapiens, UniProt O95136).
T5 construct: expressed in transfected cells; host or cells: HTC rat hepatoma cells
Description: Intracellular calcium assay, S1P-stimulated, HTC cells expressing Edg-5. Format: cell-based. The conditions noted are these: concentrations as high as 20 µM.

Another assay deals with T6, Angiotensin AT2 (Homo sapiens, UniProt P50052).
T6 construct: expressed in transfected cells; host or cells: HeLa cells
T6 sequence (P50052 1-363): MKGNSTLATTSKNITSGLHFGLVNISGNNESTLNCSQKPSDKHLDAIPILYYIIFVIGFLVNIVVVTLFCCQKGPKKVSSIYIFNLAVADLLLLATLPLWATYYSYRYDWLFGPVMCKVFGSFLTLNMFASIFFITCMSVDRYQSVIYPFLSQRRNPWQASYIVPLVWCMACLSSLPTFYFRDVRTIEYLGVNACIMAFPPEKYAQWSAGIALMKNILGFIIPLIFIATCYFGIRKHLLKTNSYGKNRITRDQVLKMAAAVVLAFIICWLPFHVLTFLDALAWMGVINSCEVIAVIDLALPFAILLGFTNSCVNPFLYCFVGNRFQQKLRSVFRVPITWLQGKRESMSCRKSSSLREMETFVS
Description: Radioligand binding assay, 125I CGP-42112A. The conditions noted are these: 10 μM; significance criteria ≧50% of max stimulation or inhibition. How it is done:
as §1, §2, §3

In assay [1] the test system is Adrenergic α1, non-selective. Nature of the assay: Radioligand binding assay, 3H Prazosin. The conditions noted are these: 10 μM; significance criteria ≧50% of max stimulation or inhibition. More on the design: species or system Wistar Rat. How it is done:
as §1, §2, §3

Another assay has as its target T7, Edg-2 (Homo sapiens, UniProt Q92633).
T7 construct: expressed in transfected cells; host or cells: HTC rat hepatoma cells
Nature of the assay: Intracellular calcium assay, LPA-stimulated, HTC cells expressing Edg-2. Type of assay: cell-based. The conditions noted are these: concentrations as high as 20 µM.

The next assay concerns the target T8, Edg-8 (Homo sapiens, UniProt Q9H228).
T8 construct: expressed in transfected cells; host or cells: HTC rat hepatoma cells
Description: Intracellular calcium assay, S1P-stimulated, HTC cells expressing Edg-8. Format: cell-based. The settings on record: concentrations as high as 20 µM.

T4 sequence (P31389 whole entry): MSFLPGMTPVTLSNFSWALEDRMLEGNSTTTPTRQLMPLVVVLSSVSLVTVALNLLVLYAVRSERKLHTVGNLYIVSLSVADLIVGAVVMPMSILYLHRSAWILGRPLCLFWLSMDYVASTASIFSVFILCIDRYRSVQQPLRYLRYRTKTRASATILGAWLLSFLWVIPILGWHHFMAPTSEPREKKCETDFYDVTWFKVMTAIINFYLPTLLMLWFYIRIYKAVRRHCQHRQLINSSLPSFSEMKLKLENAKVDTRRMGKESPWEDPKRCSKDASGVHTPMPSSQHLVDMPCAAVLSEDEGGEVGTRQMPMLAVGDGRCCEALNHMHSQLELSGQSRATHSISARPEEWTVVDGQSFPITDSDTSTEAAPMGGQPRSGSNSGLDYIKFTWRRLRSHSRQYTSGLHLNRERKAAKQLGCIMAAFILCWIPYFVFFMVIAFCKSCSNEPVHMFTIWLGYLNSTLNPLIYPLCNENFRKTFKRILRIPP
T8 sequence (Q9H228 whole entry): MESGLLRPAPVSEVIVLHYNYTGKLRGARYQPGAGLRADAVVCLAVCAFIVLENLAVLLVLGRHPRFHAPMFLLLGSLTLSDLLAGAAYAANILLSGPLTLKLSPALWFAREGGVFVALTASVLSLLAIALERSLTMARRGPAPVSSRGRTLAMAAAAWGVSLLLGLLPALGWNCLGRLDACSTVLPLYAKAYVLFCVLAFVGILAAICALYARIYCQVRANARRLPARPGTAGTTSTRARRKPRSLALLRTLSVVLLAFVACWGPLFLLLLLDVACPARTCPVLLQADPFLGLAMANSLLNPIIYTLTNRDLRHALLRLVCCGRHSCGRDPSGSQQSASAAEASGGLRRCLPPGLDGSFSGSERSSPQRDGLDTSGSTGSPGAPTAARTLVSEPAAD
T5 sequence (O95136 whole entry): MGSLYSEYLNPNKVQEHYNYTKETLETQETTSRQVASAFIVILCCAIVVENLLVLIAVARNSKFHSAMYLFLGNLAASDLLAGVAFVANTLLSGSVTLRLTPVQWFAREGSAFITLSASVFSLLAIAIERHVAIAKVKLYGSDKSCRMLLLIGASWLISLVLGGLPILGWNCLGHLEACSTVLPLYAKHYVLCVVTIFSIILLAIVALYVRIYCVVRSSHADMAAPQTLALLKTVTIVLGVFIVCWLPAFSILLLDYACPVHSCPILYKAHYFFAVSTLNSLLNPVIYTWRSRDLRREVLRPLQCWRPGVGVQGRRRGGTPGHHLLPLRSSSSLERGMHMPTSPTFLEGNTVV
T3 sequence (Q9HBW0 whole entry): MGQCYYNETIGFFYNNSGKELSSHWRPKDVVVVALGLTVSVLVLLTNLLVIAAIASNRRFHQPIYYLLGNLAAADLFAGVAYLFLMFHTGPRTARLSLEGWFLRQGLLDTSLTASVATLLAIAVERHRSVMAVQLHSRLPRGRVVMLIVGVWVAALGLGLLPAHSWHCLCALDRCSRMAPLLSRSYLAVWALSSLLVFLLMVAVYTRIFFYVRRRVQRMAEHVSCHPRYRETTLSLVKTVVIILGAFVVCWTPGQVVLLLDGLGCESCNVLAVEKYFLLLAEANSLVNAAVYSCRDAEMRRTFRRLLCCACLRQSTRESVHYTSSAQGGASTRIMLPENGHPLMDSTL
T7 sequence (Q92633 whole entry): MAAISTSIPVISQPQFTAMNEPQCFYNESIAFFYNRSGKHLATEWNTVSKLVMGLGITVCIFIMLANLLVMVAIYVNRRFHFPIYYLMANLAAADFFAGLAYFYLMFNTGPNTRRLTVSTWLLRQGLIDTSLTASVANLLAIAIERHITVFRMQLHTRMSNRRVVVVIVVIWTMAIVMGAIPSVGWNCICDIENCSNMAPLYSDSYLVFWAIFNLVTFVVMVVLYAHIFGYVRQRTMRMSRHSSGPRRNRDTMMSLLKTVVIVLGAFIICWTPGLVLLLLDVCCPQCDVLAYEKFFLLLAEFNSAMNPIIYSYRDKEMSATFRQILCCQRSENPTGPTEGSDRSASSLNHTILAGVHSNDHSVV

`Cc1c(-c2ccccc2)nc2ccccc2c1C(=O)NCc1ccc(F)cc1` [Compound 101, 3-methyl-2-phenyl-quinoline-4-carboxylic acid 4-fluoro-benzylamide]: the “activity in standard binding assay, Adrenergic β” value in the assay with Adrenergic β is “no activity”. The “inhibition of LPA-stimulated calcium increases, Edg-7” value on Edg-7 was “did not inhibit”. The “inhibition of S1P-stimulated calcium increases, Edg-1” value at Edg-1 is “did not inhibit”. Further, on Edg-4, the “inhibition of LPA-stimulated calcium increases, Edg-4” value is given as “did not inhibit”. On Histamine H1, Central, the “activity in standard binding assay, Histamine H1, Central” value is reported as “no activity”. Further, the “inhibition of S1P-stimulated calcium increases, Edg-5” value on Edg-5 is reported as “did not inhibit”. For the same molecule, the “activity in standard binding assay, Angiotensin AT2” value on Angiotensin AT2 is given as “no activity”. In assay [1], the “activity in standard binding assay, Adrenergic α1” value is listed as “no activity”. Further, the “inhibition of LPA-stimulated calcium increases, Edg-2” value at Edg-2 was “did not inhibit”. Besides, the “inhibition of S1P-stimulated calcium increases, Edg-8” value at Edg-8 is given as “did not inhibit”.
